Assay results: patent US20080280810A1, “PEPTIDES HAVING AFFINITY FOR BODY SURFACES” (priority 2006, published 2008)

Assays:
[1] = Color retention after shampoo treatment, peptide as sealant with Acid Red 33 dye; design: species or system human; conditions: 0.50 wt % Acid Red 33, peptide 0.25 wt %, 30 min contact, after one shampoo treatment; vs uncolored hair; larger = better color retention; dye alone 19.63
Description: The peptides used in this Example were prepared as described in Examples 1-3. The color retention was quantified using a spectrophotometric measurement technique.
A peptide given as SEQ ID NO:41, SEQ ID NO:42, or SEQ ID NO:43 (38 mg), produced via fermentation as described in Examples 1-3, was added to 15 g of an aqueous 0.50 wt % solution of Acid Red 33 (Abbey Color, Philadelphia, Pa.) and the solution was allowed to stir for 1 h. A natural white hair tress (1 cm wide, potted, International Hair Importers & Products Inc., Bellerose, N.Y.) was inserted into a 15 mm×125 mm test tube and 13 mL of the peptide/dye mixture was injected into the test tube. The hair tress was immersed in contact with the colorant solution for 30 min and the colorant solution was agitated using a magnetic stirrer. The tress was removed, allowed to drip dry, and then air dried for 30 min.
The hair tress was then subjected to a water rinse using copious amounts of deionized water, followed by a shampoo treatment with embrocation for 30 seconds. The shampoo treatment involved the application of Pantene Pro-V Sheer Volume shampoo (Proctor & Gamble, Cincinnati, Ohio) to the hair as follows. A quarter-sized drop of the shampoo was distributed evenly over the hair tress and then was massaged aggressively into the hair for 30 sec, after which the hair tress was rinsed with water to remove the shampoo. The hair tress was then dried at room temperature. The entire procedure described above was repeated without the addition of the hair-binding peptide to serve as a control.
The color intensity after the shampoo treatment was measured using an X-Rite® SP78™ Sphere Spectrophotometer (X-Rite, Inc., Grandville, Mich.), by placing the colored hair sample into the photosensor and calculating L*, a* and b* parameters representing the photometer response. An initial baseline L* value was measured for the uncolored hair and all measurements were the average of three individual determinations. Delta E values were calculated using equation 1 below: […]

[2] = HPLC analysis of peptide uptake by hair; assay type: binding, human; conditions: no dye; for % Uptake time = 0 min / % Uptake time = 30 min / % Uptake time = 60 min: 20 mM Tris pH 7.2, 0.15 M NaCl, room temperature, peptide 0.1 mg/mL (IB5A, A5) or 0.05 mg/mL (HC 71, HC 74); for uptake onto hair compared with the same peptide without the charged groups (in words): HC 71 vs IB5, HC 74 vs A5
Description: The purpose of this Example was to compare the speed of uptake by measuring the amount of various peptides including peptides of the invention bound to hair at different time points using a high performance liquid chromatography (HPLC) method. The peptides, HC 71, HC 74, IB5 (the hair-binding peptide sequence in HC 71), and A5 (the hair-binding peptide sequence in HC 74), were dissolved in 10 mL of 20 mM Tris, pH 7.2 buffer containing 0.15 M NaCl to give the peptide concentrations shown in Table 11. Natural white hair, 0.54 g, (International Hair Importers & Products Inc., Bellerose, N.Y.) was pre-equilibrated with 10 mL of Tris buffer for 30 min with mixing at room temperature. Then, the buffer was drained from the hair and 10 mL of one of the peptide solutions was added. The hair was incubated with the peptide solution at room temperature without mixing and samples were taken at 0, 30 and 60 min for HPLC analysis. For peptide uptake measurements in the presence of Acid Red 33 dye, the peptide solution was mixed 1:1 with an aqueous solution of the dye (0.5 wt %). Natural white hair (0.65 g) pre-wet with deionized water, was added to the peptide solutions and the solutions were incubated at room temperature without mixing. Samples were taken at time 0, 30, and 60 min for analysis by HPLC. The samples were analyzed using HPLC to determine the concentration of the peptide remaining in solution, and by difference, the amount of peptide taken up by the hair. The HPLC analysis was done using an Agilent liquid chromatograph (Agilent Technologies Inc., Wilmington, Del.) with a 5 μm Zorbax Eclipse XDB-C18 column (Agilent Technologies Inc.). The sample was diluted with distilled water containing 0.1% trifluoroacetic acid (typically a 10-fold dilution), and 5 to 50 μL was injected using a 100 μL injection loop. A solvent gradient elution was used with two solvents: Solvent A, consisting of acetonitrile with 0.1% aqueous trifluoracetic acid, and Solvent B, consisting of water with 0.1% trifluoroacetic acid. The gradient was from 10% acetonitrile to 80% acetonitrile at a rate of 1%/min over a period of 70 min. The flow rate was 1.25 mL/min. Detection was done with a photodiode array detector at 218 nm, 230 nm, and 278 nm.

Q: Which results are given for “P-TPPELLHGAPRS-KRKRK-D (PTPPELLHGAPRSKRKRKD; Peptide having affinity for hair) [HC 71]”?
A: Delta E [1]: 25.80; % Uptake time = 0 min [2]: 0%; % Uptake time = 30 min [2]: 69%; % Uptake time = 60 min [2]: 75%; uptake onto hair compared with the same peptide without the charged groups (in words) [2]: significantly faster uptake onto hair

Q: With “P-EQISGSLVAAPW-KRKRK-D (PEQISGSLVAAPWKRKRKD; Peptide having affinity for hair) [HC 74]” as the substance, how does the “Delta E” value [1] read?
A: The value was 28.68.

Q: What about the “% Uptake time = 0 min” value [2] of the same substance?
A: The value was 0%.

Q: What about the “% Uptake time = 30 min” value [2] of the same substance?
A: Its value is 22%.

Q: And the “% Uptake time = 60 min” value [2]?
A: Its value is 27%.

Q: And the “uptake onto hair compared with the same peptide without the charged groups (in words)” value [2]?
A: Its value is “significantly faster uptake onto hair”.
